Data: patent publication US20240287071A1, “CLASS OF IMIDAZOLIDINOPYRIMIDONE COMPOUNDS AND USE THEREOF IN TREATMENT OF HSCLPP-MEDIATED DISEASES” (SICHUAN UNIVERSITY, priority 2021, published 2024)

Molecular target: HsClpP (Homo sapiens, UniProt Q16740)
Test: HsClpP enzyme hydrolysis of short peptide substrate AC-WLA-AMC
Conditions: promoting hydrolysis of short peptide substrate by HsClpP, relative to blank control

HsClpP, sequence (Q16740 57-277): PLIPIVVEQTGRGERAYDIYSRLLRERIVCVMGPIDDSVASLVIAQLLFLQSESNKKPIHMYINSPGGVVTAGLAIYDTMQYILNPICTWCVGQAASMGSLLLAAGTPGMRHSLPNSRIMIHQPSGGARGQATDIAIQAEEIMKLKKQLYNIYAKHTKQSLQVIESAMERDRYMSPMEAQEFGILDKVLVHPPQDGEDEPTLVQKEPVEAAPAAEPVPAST

Regulatory efficacy 1 μM	Regulatory efficacy 10 μM	SMILES
+ +	+ +	Cc1ccc(CN2CCc3c(c(=O)nc4n3CCN4Cc3ccccc3C)C2)cc1 [Compound 33, 3-(2-methylbenzyl)-7-(4-methylbenzyl)-2,3,6,7,8,9-hexahydroimidazo[1,2-a]pyrido[3,4-e]pyrimidin-5(1H)-one]
+ +	+ +	Cc1ccccc1CN1CCn2c1nc(=O)c1c2CCN(Cc2ccccc2C#N)C1 [Compound 34, 2-((3-(2-methylbenzyl)-5-oxo-2,3,6,7,8,9-hexahydroimidazo[1,2-a]pyrido[3,4-e]pyrimidin-7(6H)-yl)methyl)benzonitrile]
+ +	+ +	Cc1ccccc1CN1CCn2c1nc(=O)c1c2CCN(Cc2ccc(F)c(F)c2)C1 [Compound 36, 7-(3,4-difluorobenzyl)-3-(2-methylbenzyl)-2,3,6,7,8,9-hexahydroimidazo[1,2-a]pyrido[3,4-e]pyrimidin-5(1H)-one]
+ +	+ +	Cc1ccccc1CN1CCn2c1nc(=O)c1c2CCN(Cc2ccc(F)cc2)C1 [Compound 38, 7-(4-fluorobenzyl)-3-(2-methylbenzyl)-2,3,6,7,8,9-hexahydroimidazo[1,2-a]pyrido[3,4-e]pyrimidin-5(1H)-one]
+ +	+ +	Cc1ccccc1CN1CCn2c1nc(=O)c1c2C(F)(F)CN(Cc2ccccc2)C1 [Compound 47, 7-Benzyl-9,9-difluoro-3-(2-methylbenzyl)-2,3,6,7,8,9-hexahydroimidazo[1,2-a]pyrido[3,4-e]pyrimid in-5(1H)-one]
+ +	+ +	Cc1cccc(CN2CCn3c2nc(=O)c2c3C(F)(F)CN(Cc3ccccc3)C2)c1 [Compound 48, 7-Benzyl-9,9-difluoro-3-(3-methylbenzyl)-2,3,6,7,8,9-hexahydroimidazo[1,2-a]pyrido[3,4-e]pyrimid in-5(1H)-one]
+ +	+ +	O=c1nc2n(c3c1CN(Cc1ccccc1)CC3(F)F)CCN2Cc1ccc(F)c(Br)c1 [Compound 49, 7-Benzyl-9,9-difluoro-3-(3-bromo-4-fluorobenzyl)-2,3,6,7,8,9-hexahydroimidazo[1,2-a]pyrido[3,4-e]pyrimidin-5(1H)-one]
+ +	+ +	N#Cc1cccc(CN2Cc3c(n4c(nc3=O)N(Cc3ccc(F)c(F)c3)CC4)C(F)(F)C2)c1 [Compound 50, 3-((3-(3,4-difluorobenzyl)-9,9-difluoro-5-oxo-2,3,6,7,8,9-hexahydroimidazo[1,2-a]pyrido[3,4-e]pyrimidin-7(6H)-yl)methyl)benzonitrile]
+ +	+ +	COC(=O)c1cccc(CN2CCn3c2nc(=O)c2c3C(F)(F)CN(Cc3cccc(C#N)c3)C2)c1 [Compound 51]
+ +	+ +	N#Cc1cccc(CN2Cc3c(n4c(nc3=O)N(Cc3ccccc3)CC4)C(F)(F)C2)c1 [Compound 52, 3-((3-benzyl-9,9-difluoro-5-oxo-2,3,6,7,8,9-hexahydroimidazo[1,2-a]pyrido[3,4-e]pyrimidin-7(6H)-yl)methyl)benzonitrile]
+ +	+ +	N#Cc1cccc(CN2Cc3c(n4c(nc3=O)N(Cc3cccc(F)c3)CC4)C(F)(F)C2)c1 [Compound 53, 3-((3-(3-fluorobenzyl)-9,9-difluoro-5-oxo-2,3,6,7,8,9-hexahydroimidazo[1,2-a]pyrido[3,4-e]pyrimidin-7(6H)-yl)methyl)benzonitrile]
+ +	+ +	N#Cc1cccc(CN2Cc3c(n4c(nc3=O)N(Cc3ccc(F)c(Br)c3)CC4)C(F)(F)C2)c1 [Compound 54, 3-((3-(3-bromo-4-fluorobenzyl)-9,9-difluoro-5-oxo-2,3,6,7,8,9-hexahydroimidazo[1,2-a]pyrido[3,4-e]pyrimidin-7(6H)-yl)methyl)benzonitrile]
+ +	+ +	CC(C)CCN1CCn2c1nc(=O)c1c2C(F)(F)CN(Cc2cccc(C#N)c2)C1 [Compound 55, 3-((9,9-difluoro-3-isopentyl-5-oxo-2,3,6,7,8,9-hexahydroimidazo[1,2-a]pyrido[3,4-e]pyrimidin-7(6H)-yl)methyl)benzonitrile]
+ +	+ +	Cc1ccc(CN2CCn3c2nc(=O)c2c3C(F)(F)CN(Cc3cccc(C#N)c3)C2)cc1 [Compound 56, 3-((9,9-difluoro-3-(4-methylbenzyl)-5-oxo-2,3,6,7,8,9-hexahydroimidazo[1,2-a]pyrido[3,4-e]pyrimidin-7(6H)-yl)methyl)benzonitrile]
+ +	+ +	N#Cc1cccc(CN2Cc3c(n4c(nc3=O)N(Cc3ccc(Cl)c(Cl)c3)CC4)C(F)(F)C2)c1 [Compound 57, 3-((9,9-difluoro-3-(3,4-dichlorobenzyl)-5-oxo-2,3,6,7,8,9-hexahydroimidazo[1,2-a]pyrido[3,4-e]pyrimidin-7(6H)-yl)methyl)benzonitrile]
+ +	+ +	Cc1cccc(CN2CCn3c2nc(=O)c2c3C(F)(F)CN(Cc3cccc(C#N)c3)C2)c1 [Compound 58, 3-((9,9-difluoro-3-(3-methylbenzyl)-5-oxo-2,3,6,7,8,9-hexahydroimidazo[1,2-a]pyrido[3,4-e]pyrimidin-7(6H)-yl)methyl)benzonitrile]
+ +	+ +	O=c1nc2n(c3c1CN(Cc1ccccc1)CC3)CCN2Cc1cccc(Br)c1 [Compound 59, 7-Benzyl-3-(3-bromobenzyl)-2,3,6,7,8,9-hexahydroimidazo[1,2-a]pyrido[3,4-e]pyrimidin-5(1H)-one]
+ +	+ +	O=c1nc2n(c3c1CN(Cc1ccccc1)CC3)CCN2Cc1ccccc1Cl [Compound 61, 7-Benzyl-3-(2-chlorobenzyl)-2,3,6,7,8,9-hexahydroimidazo[1,2-a]pyrido[3,4-e]pyrimidin-5(1H)-one]
+ +	+ +	O=c1nc2n(c3c1CN(Cc1ccccc1)CC3)CCN2Cc1ccccc1F [Compound 62, 7-Benzyl-3-(2-fluorobenzyl)-2,3,6,7,8,9-hexahydroimidazo[1,2-a]pyrido[3,4-e]pyrimidin-5(1H)-one]

SMILES	Regulatory efficacy 1 μM	Regulatory efficacy 10 μM
Cc1ccccc1CN1CCn2c1nc(=O)c1c2CCN(Cc2ccc(F)cc2F)C1 [Compound 37, 7-(2,4-difluorobenzyl)-3-(2-methylbenzyl)-2,3,6,7,8,9-hexahydroimidazo[1,2-a]pyrido[3,4-e]pyrimidin-5(1H)-one]	+ (+ indicating that the increased efficacy is less than 50% of the blank control group)	+ +
Cc1ccccc1CN1CCn2c1nc(=O)c1c2CCN(C(=O)Cc2ccccc2)C1 [Compound 40, 3-(2-methylbenzyl)-7-(2-phenylacetyl)-2,3,6,7,8,9-hexahydroimidazo[1,2-a]pyrido[3,4-e]pyrimidin-5(1H)-one]	+ (+ indicating that the increased efficacy is less than 50% of the blank control group)	+ (+ indicating that the increased efficacy is less than 50% of the blank control group)
Cc1ccccc1CN1CCn2c1nc(=O)c1c2CCN(CCCCc2ccccc2)C1 [Compound 41, 3-(2-methylbenzyl)-7-(4-phenylbutyl)-2,3,6,7,8,9-hexahydroimidazo[1,2-a]pyrido[3,4-e]pyrimidin-5 (1H)-one]	+ (+ indicating that the increased efficacy is less than 50% of the blank control group)	+ (+ indicating that the increased efficacy is less than 50% of the blank control group)
Cc1ccccc1CN1CCn2c1nc(=O)c1c2CCN(CCc2ccccc2)C1 [Compound 42, 3-(2-methylbenzyl)-7-phenethyl-2,3,6,7,8,9-hexahydroimidazo[1,2-a]pyrido[3,4-e]pyrimidin-5(1H)-one]	+ (+ indicating that the increased efficacy is less than 50% of the blank control group)	+ +
Cc1ccccc1CN1CCn2c1nc(=O)c1c2CCN(Cc2cccnc2)C1 [Compound 43, 3-(2-methylbenzyl)-7-(pyridin-3-methyl)-2,3,6,7,8,9-hexahydroimidazo[1,2-a]pyrido[3,4-e]pyrimidi n-5(1H)-one]	+ (+ indicating that the increased efficacy is less than 50% of the blank control group)	+ +
Cc1ccccc1CN1CCn2c1nc(=O)c1c2CCN(Cc2ccncc2)C1 [Compound 44, 3-(2-methylbenzyl)-7-(pyridin-4-methyl)-2,3,6,7,8,9-hexahydroimidazo[1,2-a]pyrido[3,4-e]pyrimidi n-5(1H)-one]	+ (+ indicating that the increased efficacy is less than 50% of the blank control group)	+ +
Cc1ccccc1CN1CCn2c1nc(=O)c1c2CCN(c2nncs2)C1 [Compound 45, 3-(2-methylbenzyl)-7-(1,3,4-thiadiazol-2-yl)-2,3,6,7,8,9-hexahydroimidazo[1,2-a]pyrido[3,4-e]pyri midin-5(1H)-one]	+ (+ indicating that the increased efficacy is less than 50% of the blank control group)	+ (+ indicating that the increased efficacy is less than 50% of the blank control group)
Cc1ccccc1CN1CCCn2c1nc(=O)c1c2CCN(Cc2ccccc2)C1 [Compound 46, 3-Benzyl-7-(2-methylbenzyl)-1,2,3,4,7,8,9, 10-octahydro-5H-pyrido[3,4-e]pyrimido[1,2-a] pyrimidin-5-one]	+ (+ indicating that the increased efficacy is less than 50% of the blank control group)	+ +
